Source: US20150157645A1, “COMBINATION OF A 17-ALPHA-HYDROXYLASE (C17,20-LYASE) INHIBITOR AND A SPECIFIC PI-3K INHIBITOR FOR TREATING A TUMOR DISEASE” (priority 2012, published 2015)
Marks after values point to notes of the source that are not given here.

Assays:
[1] = system: human prostate LNCap xenograft; assay: human prostate LnCap xenograft model in SCID mice (study MIS-43P-12); format: in vivo; set-up: Average / Delta avg: unit not given here; conditions: D 300 mg/kg bid, C 30 mg/kg qd; for anti-tumor response (in words): LnCap, single agent, AA 100 mg/kg bid; for T/C [%] / Delta avg / Average: po, C/D 30/300 qd/bid; for Delta avg: change of average tumor volume
Description: (§1) Recently, in vivo anti-tumor efficacy of 1-(2-Chloro-pyridin-4-yl)-3-(4-methyl-pyridin-3-yl)-imidazolidin-2-one was evaluated alone and in combination with COMPOUND C or its hydrochloride salt (a pan PI3K inhibitor) in two human prostate cancer xenograft models, VCap and LnCap, established in SCID mice. The VCap tumors which, express PTEN and over-express wild type AR, were established in chemically-castrated mice. The LnCap tumors which, express mutant AR (T877A) and are PTEN null, were initially established in non-castrated animals which were chemically-castrated at the time of treatment.

[2] = system: human prostate VCap xenograft; assay: human prostate VCap xenograft model in SCID mice (studies MIS-32S-12 and MIS-59FVA-12); conditions: for ΔTumor volume (mm^3): mean ± SEM
Description: as §1

[3] = MIS-43P-12, day 0 of treatment, E 100 mg/kg bid
[4] = MIS-43P-12, day 4 of treatment, E 100 mg/kg bid
[5] = MIS-43P-12, day 11 of treatment
[6] = MIS-43P-12, day 14 of treatment, E 100 mg/kg bid
[7] = MIS-43P-12, day 18 of treatment, E 100 mg/kg bid
[8] = MIS-43P-12, day 0, E 100 mg/kg bid
[9] = MIS-43P-12, day 4, E 100 mg/kg bid
[10] = MIS-43P-12, day 14, E 100 mg/kg bid
[11] = MIS-43P-12, day 18, E 100 mg/kg bid
[12] = tumor volume (FIG. 3a), MIS-43P-12, day 0 of treatment, E 100 mg/kg bid
[13] = tumor volume, MIS-43P-12, day 4 of treatment, E 100 mg/kg bid
[14] = tumor volume, MIS-43P-12, day 7 of treatment
[15] = tumor volume, MIS-43P-12, day 11 of treatment
[16] = tumor volume, MIS-43P-12, day 14 of treatment, E 100 mg/kg bid
[17] = tumor volume, MIS-43P-12, day 18 of treatment, E 100 mg/kg bid
[18] = MIS-32S-12, Day 14, p.o., D 300 mg/kg bid, AA 100 mg/kg bid, C 30 mg/kg qd, C + D 30 qd + 300 bid
[19] = MIS-32S-12, Day 35, p.o., D 300 mg/kg bid, AA 100 mg/kg bid, C 30 mg/kg qd, C + D 30 qd + 300 bid
[20] = MIS-32S-12, Day 35, p.o., D 300 mg/kg bid, AA 100 mg/kg bid, C 30 mg/kg qd, C + D 30 mg/kg qd + 300 mg/kg bid
[21] = MIS-59FVA-12, Day 14, p.o., D 300 mg/kg bid, C 30 mg/kg qd, C + D 30 qd + 300 bid (so in the source)
[22] = MIS-59FVA-12, Day 14, p.o., D 300 mg/kg bid, C 30 mg/kg qd (so in the source)
[23] = MIS-59FVA-12, Day 23, p.o., D 300 mg/kg bid, C 30 mg/kg qd, C + D 30 qd + 300 bid (so in the source)
[24] = MIS-59FVA-12, Day 23, p.o., D 300 mg/kg bid, C 30 mg/kg qd (so in the source)

Cc1ccncc1N1CCN(c2ccnc(Cl)c2)C1=O [Compound D, 1-(2-Chloro-pyridin-4-yl)-3-(4-methyl-pyridin-3-yl)-imidazolidin-2-one]
anti-tumor response (in words) [1]: marginal tumor growth delay
T/C [%] [1, 3]: 100%
T/C [%] [1, 4]: 82%
T/C [%] ([1]; MIS-43P-12, day 7 of treatment): 60%
T/C [%] [1, 5]: 85%
T/C [%] [1, 6]: 57%
T/C [%] [1, 7]: 67%
Delta avg [1, 8]: 0
Delta avg [1, 9]: 43
Delta avg ([1]; MIS-43P-12, day 7): 73
Delta avg ([1]; MIS-43P-12, day 11): 197
Delta avg [1, 10]: 200
Delta avg [1, 11]: 317
Average [1, 12]: 174
Average [1, 13]: 217
Average [1, 14]: 248
Average [1, 15]: 372
Average [1, 16]: 375
Average [1, 17]: 491
ΔTumor volume (mm^3) [2, 18]: 35.6 ± 10.5 mm^3
T/C [%] ([2]; MIS-32S-12, Day 14, p.o., D 300 mg/kg bid, AA 100 mg/kg bid, C 30 mg/kg qd, C + D 30 mg/kg qd + 300 mg/kg bid): 27.2*^$ %
ΔTumor volume (mm^3) [2, 19]: 303.9 ± 57.3 mm^3
T/C [%] [2, 20]: 65.2*^;$;# %
ΔTumor volume (mm^3) [2, 21]: 36.3 ± 17.0 mm^3
T/C [%] [2, 22]: 40.3* %
ΔTumor volume (mm^3) [2, 23]: 79.8 ± 20.1 mm^3
T/C [%] [2, 24]: 38.7*^;# %
anti-tumor response (in words) ([2]; two separate VCap experiments, single agent, D 300 mg/kg bid, AA 100 mg/kg bid): either slight tumor regression or tumor stasis initially, followed by tumor growth delay

Nc1cc(C(F)(F)F)c(-c2cc(N3CCOCC3)nc(N3CCOCC3)n2)cn1 [Compound C, 5-(2,6-di-morpholin-4-yl-pyrimidin-4-yl)-4-trifluoromethyl-pyridin-2-ylamine]
anti-tumor response (in words) [1]: marginal tumor growth delay
T/C [%] [1, 3]: 100%
T/C [%] [1, 4]: 56%
T/C [%] ([1]; MIS-43P-12, day 7 of treatment): 71%
T/C [%] [1, 5]: 86%
T/C [%] [1, 6]: 75%
T/C [%] [1, 7]: 79%
Delta avg [1, 8]: 0
Delta avg [1, 9]: 29
Delta avg ([1]; MIS-43P-12, day 7): 88
Delta avg ([1]; MIS-43P-12, day 11): 198
Delta avg [1, 10]: 261
Delta avg [1, 11]: 375
Average [1, 12]: 170
Average [1, 13]: 199
Average [1, 14]: 258
Average [1, 15]: 369
Average [1, 16]: 432
Average [1, 17]: 546
ΔTumor volume (mm^3) [2, 18]: −18.9 ± 6.3 mm^3
Regression (printed in T/C column) ([2]; MIS-32S-12, Day 14, p.o., C 30 mg/kg qd, C + D 30 mg/kg qd + 300 mg/kg bid): 13.8%*
Survival (alive/total) [2, 18]: 7/7
ΔTumor volume (mm^3) [2, 19]: 23.3 ± 21.6 mm^3
T/C [%] [2, 20]: 5.0*^;$ %
Survival (alive/total) [2, 19]: 7/7
ΔTumor volume (mm^3) [2, 21]: 3.6 ± 7.6 mm^3
T/C [%] [2, 22]: 4.0%*
Survival (alive/total) [2, 21]: 7/7
ΔTumor volume (mm^3) [2, 23]: 25.6 ± 16.4 mm^3
T/C [%] [2, 24]: 12.4* %
Survival (alive/total) [2, 23]: 7/7
anti-tumor response (in words) ([2]; VCap, single agent 20 mg/kg qd): tumor growth delay
anti-tumor response (in words) ([2]; VCap, single agent 30 mg/kg qd): tumor regression
